Experimental data from the supplement of paper PMC10307832.

Assays:
Test in all cases: relative viability (nuclei count vs DMSO), 5 days (fraction); higher = more cells survive
[1] = compound: Cc1ccc(F)c(NC(=O)Nc2ccc(-c3cccc4[nH]nc(N)c34)cc2)c1 [Linifanib]
Procedure, shortened: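 In 1536-well plates, lung cancer cell lines rested overnight at 37 °C before five library-drug doses (not always all listed), √10 apart, were pinned onto vehicle-anchored plates. Nuclei were counted with MetaXpress from 4× Hoechst images taken after 5 days without medium change. Viability compares treated-well with vehicle-well nuclei as a median over plates, and plates needed control CV below 25% plus at least one doubling to pass.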

[2] = compound: Cc1ccc(F)c(NC(=O)Nc2ccc(-c3cccc4[nH]nc(N)c34)cc2)c1 [Linifanib] + CC(=O)Nc1cccc(-n2c(=O)n(C3CC3)c(=O)c3c(Nc4ccc(I)cc4F)n(C)c(=O)c(C)c32)c1 [Trametinib] (partner 0.02 µM)
Procedure, shortened: (§1)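 Lung cancer cell lines were pin-tool dosed in 1536-well plates on the day after seeding, with either a lone drug or a fixed anchor-drug dose plus five library-drug doses (not always all listed) in √10 steps. Nuclei were counted on 4× images after 5 days. Relative viability is the ratio of treated-well to vehicle-well nuclei counts, with each value a median of duplicate plates.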

[3] = compound: Cc1ccc(F)c(NC(=O)Nc2ccc(-c3cccc4[nH]nc(N)c34)cc2)c1 [Linifanib] + CC(C)C[C@H](NC(=O)[C@H](Cc1ccccc1)NC(=O)c1cnccn1)B(O)O [Bortezomib] (partner 0.002 µM)
Procedure, shortened: as §1

[4] = compound: Cc1ccc(F)c(NC(=O)Nc2ccc(-c3cccc4[nH]nc(N)c34)cc2)c1 [Linifanib] + N=C(N)NC(=N)NCCc1ccccc1 [Phenformin] (partner 250 µM)
Procedure, shortened: as §1

[5] = compound: Cc1ccc(F)c(NC(=O)Nc2ccc(-c3cccc4[nH]nc(N)c34)cc2)c1 [Linifanib] + Nc1ncn([C@H]2C[C@H](O)[C@@H](CO)O2)c(=O)n1 [Decitabine] (partner 2 µM)
Procedure, shortened: as §1

[6] = compound: Cc1ccc(F)c(NC(=O)Nc2ccc(-c3cccc4[nH]nc(N)c34)cc2)c1 [Linifanib] + O=C(CCCCCCC(=O)Nc1ccccc1)NO [Vorinostat] (partner 1 µM)
Procedure, shortened: as §1

Cell Line | relative viability ([1]; 0.03162 µM) | relative viability ([1]; 0.1 µM) | relative viability ([1]; 0.3162 µM) | relative viability ([2]; first compound 0.03162 µM) | relative viability ([2]; first compound 0.1 µM) | relative viability ([2]; first compound 0.3162 µM) | relative viability ([3]; first compound 0.03162 µM) | relative viability ([3]; first compound 0.1 µM) | relative viability ([3]; first compound 0.3162 µM) | relative viability ([4]; first compound 0.03162 µM) | relative viability ([4]; first compound 0.1 µM) | relative viability ([4]; first compound 0.3162 µM) | relative viability ([5]; first compound 0.03162 µM) | relative viability ([5]; first compound 0.1 µM) | relative viability ([5]; first compound 0.3162 µM) | relative viability ([6]; first compound 0.03162 µM) | relative viability ([6]; first compound 0.1 µM) | relative viability ([6]; first compound 0.3162 µM)
NCI-H1650 | 0.965 | 0.966 | 0.89 | 0.563 | 0.673 | 0.541 | 0.216 | 0.212 | 0.199 | 0.428 | 0.571 | 0.412 | 0.482 | 0.407 | 0.37 | 0.528 | 0.602 | 0.655
NCI-H2023 | 0.972 | 1.09 | 1.02 | 0.538 | 0.675 | 0.554 | 1.03 | 1.28 | 0.975 | 0.398 | 0.479 | 0.392 | 0.228 | 0.228 | 0.203 | 0.655 | 0.807 | 0.612
NCI-H2087 | 1.05 | 1.19 | 0.964 | 0.188 | 0.235 | 0.195 | 1.06 | 0.608 | 0.849 | 0.431 | 0.51 | 0.431 | 0.31 | 0.248 | 0.268 | 0.854 | 0.695 | 0.598
NCI-H322M | 1 | 0.939 | 0.956 | 0.549 | 0.345 | 0.506 | 1.24 | 1.21 | 1.27 | 0.756 | 0.819 | 0.737 | 0.732 | 0.697 | 0.77 | 0.848 | 0.914 | 0.876
EPLC-272H | 0.883 | 1.23 | 0.884 | 0.254 | 0.292 | 0.274 | 1.21 | 1.04 | 0.785 | 0.298 | 0.318 | 0.325 | 0.352 | 0.435 | 0.362 | 0.522 | 0.467 | 0.513
HARA | 0.926 | 1.04 | 0.907 | 0.813 | 0.809 | 0.591 | 1.14 | 1.11 | 1.06 | 0.446 | 0.539 | 0.476 | 0.599 | 0.61 | 0.61 | 0.598 | 0.479 | 0.579
EMC-BAC-2 | 1.07 | 1.03 | 0.965 | 1.01 | 0.993 | 0.875 | 1.11 | 1.13 | 1.12 | 0.625 | 0.582 | 0.544 | 1.01 | 1.03 | 0.951 | 0.47 | 0.465 | 0.426
LCLC-97TM1 | 1.15 | 1.02 | 0.919 | 0.2 | 0.179 | 0.16 | 0.866 | 0.868 | 0.56 | 0.423 | 0.437 | 0.341 | 0.222 | 0.228 | 0.249 | 0.739 | 0.807 | 0.603
NCI-H2405 | 1.08 | 1.04 | 0.966 | 0.599 | 0.675 | 0.596 | 1.05 | 0.958 | 0.957 | 0.396 | 0.4 | 0.382 | 0.766 | 0.747 | 0.756 | 0.988 | 1.05 | 0.951
NCI-H1975 | 0.987 | 1.03 | 0.938 | 0.298 | 0.525 | 0.355 | 0.504 | 0.376 | 0.389 | 0.418 | 0.433 | 0.406 | 0.384 | 0.446 | 0.413 | 0.649 | 0.735 | 0.697
HCC-78 | 0.99 | 1.17 | 0.885 | 0.657 | 0.692 | 0.805 | 0.455 | 0.429 | 0.472 | 0.675 | 0.761 | 0.686 | 0.784 | 0.752 | 0.717 | 0.419 | 0.427 | 0.455
NCI-H23 | 0.98 | 1.06 | 0.811 | 0.399 | 0.487 | 0.396 | 1.03 | 1.2 | 1.16 | 0.773 | 0.838 | 0.749 | 0.355 | 0.308 | 0.343 | 0.771 | 0.688 | 0.566
NCI-H1666 | 0.986 | 1.03 | 0.939 | 0.851 | 0.878 | 0.842 | 0.892 | 0.756 | 0.643 | 0.577 | 0.559 | 0.548 | 0.856 | 0.691 | 0.698 | 0.996 | 1.01 | 0.97
NCI-H650 | 1.1 | 1.11 | 0.972 | 0.935 | 0.967 | 0.952 | 0.816 | 0.814 | 0.864 | 0.45 | 0.449 | 0.439 | 0.371 | 0.355 | 0.312 | 0.513 | 0.409 | 0.358
NCI-H520 | 0.862 | 1.07 | 0.955 | 0.673 | 0.803 | 0.731 | 0.773 | 1.07 | 0.497 | 0.493 | 0.666 | 0.552 | 0.461 | 0.6 | 0.542 | 0.669 | 0.769 | 0.643
HCC-366 | 1.06 | 1.05 | 0.949 | 0.4 | 0.391 | 0.399 | 1 | 1.1 | 1.02 | 0.575 | 0.62 | 0.635 | 0.417 | 0.328 | 0.336 | 0.371 | 0.378 | 0.359
NCI-H727 | 0.899 | 1.02 | 0.855 | 0.396 | 0.418 | 0.388 | 0.934 | 0.922 | 0.702 | 0.609 | 0.574 | 0.609 | 0.883 | 0.885 | 0.88 | 1.29 | 1.18 | 1.09
